According to patent publication US20240043392A1, “NOVEL BIPHENYL DERIVATIVE AND PREPARATION METHOD AND PHARMACEUTICAL USE THEREOF” (XI'AN XINTON PHARMACEUTCAL RESEARCH CO., LTD., priority 2021, published 2024):
Where two headings read alike, the source gives them in different places.

Columns and labels:
hPD-1/hPD-L1 interaction = hPD-1/hPD-L1 interaction (Homo sapiens (Human), UniProt Q9NZQ7); conditions: read-out: PD-1/PD-L1 IC50
C57BL/6 mice [1] = assay: Acute toxicity test, intraperitoneal injection; conditions: 125 mg/kg
C57BL/6 mice [2] = conditions: mouse, in vivo
[3] = tested on: MC38-hPDL1 colon cancer cells; design: species or system mice; conditions: mouse, in vivo
Fc-hPD-L1 protein = Fc-hPD-L1 protein (Homo sapiens (Human), UniProt Q9NZQ7); assay type: binding
Chain of Fc-hPD-L1 protein (Q9NZQ7 19-238 limits assumed): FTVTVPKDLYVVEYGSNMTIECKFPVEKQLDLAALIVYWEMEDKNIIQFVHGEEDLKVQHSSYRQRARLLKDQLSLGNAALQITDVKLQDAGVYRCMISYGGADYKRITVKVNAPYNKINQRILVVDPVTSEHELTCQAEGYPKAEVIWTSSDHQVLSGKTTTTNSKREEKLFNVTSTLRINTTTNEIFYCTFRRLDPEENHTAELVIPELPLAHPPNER

Chain of hPD-1/hPD-L1 interaction (Q9NZQ7 19-238): as the sequence (Q9NZQ7 19-238 limits assumed) above

Molecule	IC50 (hPD-1/hPD-L1 interaction) [µM]	Kd (Fc-hPD-L1 protein) [µM]	also measured
1-(4-((3′-(3-(4-((2-carbamoylpyrrolidin-1-)methyl)-1H-1,2,3-triazol-1-) Propoxy)-2,2′-dimethyl-[1,1′-biphenyl]-3-methoxy)-5-chloro-2-((5-cyanopyridine-3-)methox y)benzyl) pyrrolidine-2-carboxamide [II-4]	0.01 to 0.1	–	–
5-((4-chloro-2-(((2-hydroxyethyl)amino)methyl)-5-((3′-(3-(4-(((2-hydroxyethyl)amino)methy 1 Base)-1H-1,2,3-triazol-1-)propoxy)-2,2′-dimethyl-[1,1′-biphenyl]-3-)methoxy) phenoxy) methyl)nicotinonitrile [II-2]	0.01 to 0.1	–	–
COc1nc(OCc2cccc(-c3ccccc3)c2C)ccc1CNCCNC(C)=O [BMS-202]	–	–	body weight (C57BL/6 mice [1]): decreased significantly; state of mice (clinical signs) (C57BL/6 mice [1]): obvious signs of convulsions and tremors
Cc1c(COc2cc(OCc3cncc(C#N)c3)c(CN[C@@H](CO)C(=O)O)cc2Cl)cccc1-c1cccc(OCCCn2cc(CNC(CO)C(=O)O)nn2)c1C (stereo partly drawn) [II-1, (4-((3′-(3-(4-(((1-carboxy-2-hydroxyethyl)amino)methyl)-1H-1,2,3-triazole-1-)propaneoxy)-2,2′-dimethyl-[1,1′-biphenyl]-3-)methoxy)-5-chloro-2-((5-cyanopyridin-3-)methoxy)benzyl)serine]	0.0001 to 0.01	0.0001 to 0.1	body weight (C57BL/6 mice [2]): nor did their body weight decrease; inhibitory effect on tumor growth [3]: weak inhibitory effect on tumor growth; proliferation of CD3+CD4+T cell [3]: can promote the proliferation; proliferation of CD3+CD8+T cell [3]: can promote the proliferation; relative tumor inhibition rate [3]: 45.8%; tumor weight [3]: excellent anti-tumor effect
COc1cc(OCc2cccc(-c3cccc(OCCCn4cc(CN5CCCC5C(N)=O)nn4)c3C)c2C)c(Cl)cc1CN1CCCC1C(N)=O (stereo not drawn) [II-8, 1-(4-((3′-(3-(4-((2-carbamoylpyrrolidin-1-)methyl)-1H-1,2,3-triazol-1-) Propoxy)-2,2′-dimethyl-[1,1′-biphenyl]-3-)methoxy)-5-chloro-2-methoxybenzyl)pyrrolidine-2-formamide]	0.01 to 0.1	0.0001 to 0.1	–
COc1cc(OCc2cccc(-c3cccc(OCCCn4cc(CNCCO)nn4)c3C)c2C)c(Cl)cc1CNCCO [II-9]	0.0001 to 0.01	0.0001 to 0.1	–
COc1cc(OCc2cccc(-c3cccc(OCCCn4cc(CNCCNC(C)=O)nn4)c3C)c2C)c(Cl)cc1CNCCNC(C)=O [II-10, N-(2-((4-((3′-(3-(4-(((2-acetylaminoethyl)amino)methyl)-1H-1,2,3-triazole-1-)propoxy)-2,2′-dimethyl-[1,1′-biphenyl]-3-)methoxy)-5-chloro-2-methoxybenzyl)amino)ethyl)acetamide]	0.01 to 0.1	–	–
COc1cc(OCc2cccc(-c3cccc(OCCCn4cc(CN5CC[C@@H](O)C5)nn4)c3C)c2C)c(Cl)cc1CN1CC[C@@H](O)C1 [II-11, (R)-1-((1-(3-((3′-((2-chloro-4-(((R)-3-hydroxypyrrolidin-1-yl)methyl)-5-methoxyphenoxy)methyl)-2,2′-dimethyl-[1,1′-biphenyl]-3-)oxy)propyl)-1H-1,2,3-triazol-4-)methyl)py rrolidin-3-ol]	0.01 to 0.1	0.0001 to 0.1	–
COc1cc(OCc2cccc(-c3cccc(OCCCn4cc(CNCCC(=O)O)nn4)c3C)c2C)c(Cl)cc1CNCCC(=O)O [II-12, 3-((4-((3′-(3-(4-(((2-carboxyethyl)amino)methyl)-1H-1,2,3-triazol-1-)propoxyl)-2,2′-dimethyl-[1,1′-biphenyl]-3-)methoxy)-5-chloro-2-methoxybenzyl)amino)propionic acid]	0.0001 to 0.01	0.0001 to 0.1	–
COc1cc(OCc2cccc(-c3cccc(OCCCn4cc(CN5CCCCC5C(=O)O)nn4)c3C)c2C)c(Cl)cc1CN1CCCCC1C(=O)O (stereo not drawn) [II-13]	0.0001 to 0.01	–	–
COc1cc(OCc2cccc(-c3cccc(OCCCn4cc(CNC(C)C(=O)O)nn4)c3C)c2C)c(Cl)cc1CN[C@@H](C)C(=O)O (stereo partly drawn) [II-15, (4-((3′-(3-(4-(((1-carboxyethyl)amino)methyl)-1H-1,2,3-triazol-1-yl)propoxy)-2 ,2′-dimethyl-[1,1′-biphenyl]-3-)methoxy)-5-chloro-2-methoxybenzyl)alanine]	0.0001 to 0.01	–	–
CCOC(=O)[C@@H](CO)NCc1cn(CCCOc2cccc(-c3cccc(COc4cc(OCc5cncc(C#N)c5)c(CN[C@H](CO)C(=O)OCC)cc4Cl)c3C)c2C)nn1 [II-18, (5-chloro-2-((5-cyanopyridin-3-)methoxy)-4-((3′-(3-(4-((((R)-1-ethoxy-3-hydroxy-1-oxopropan-2-)amino)methyl)-1H-1,2,3-triazol-1-)propoxy)-2,2′-dimethyl-[1,1′-biphenyl]-3-)methoxy)benzyl)-D-serine ethyl ester]	0.01 to 0.1	0.1 to 1	body weight (C57BL/6 mice [2]): nor did their body weight decrease; proliferation of CD3+CD4+T cell [3]: can promote the proliferation; proliferation of CD3+CD8+T cell [3]: can promote the proliferation; relative tumor inhibition rate [3]: 49.6%; tumor weight [3]: excellent anti-tumor effect
COC(=O)[C@@H](CO)NCc1cn(CCCOc2cccc(-c3cccc(COc4cc(OCc5cncc(C#N)c5)c(CN[C@H](CO)C(=O)OC)cc4Cl)c3C)c2C)nn1 [II-19, (5-chloro-2-((5-cyanopyridin-3-)methoxy)-4-((3′-(3-(4-((((R)-1-methoxy-3-hydroxy-1-oxopropan-2-)amino)methyl)-1H-1,2,3-triazol-1-)propoxy)-2,2′-dimethyl-[1,1′-biphenyl]-3-)methoxy)benzyl)-D-serine methyl ester]	0.01 to 0.1	0.1 to 1	–
CCOC(=O)CNCc1cn(CCCOc2cccc(-c3cccc(COc4cc(OCc5cncc(C#N)c5)c(CNCC(=O)OCC)cc4Cl)c3C)c2C)nn1 [II-20, (5-chloro-2-((5-cyanopyridin-3-yl)methoxy)-4-((3′-(3-(4-(((2-ethoxy-2-oxoethyl)amino)methyl)-1H-1,2,3-triazol-1-)propoxy)-2,2′-dimethyl-[1,1′-biphenyl]-3-)methoxy)benzyl)glycine ethyl ester]	0.01 to 0.1	0.1 to 1	–
CCOC(=O)[C@@H](CO)NCc1cn(CCCOc2cccc(-c3cccc(COc4cc(OC)c(CN[C@H](CO)C(=O)OCC)cc4Cl)c3C)c2C)nn1 [II-21, ((1-(3-((3′-((2-chloro-4-((((R)1-ethoxy-3-hydroxy-1-oxopropan-2-)amino)methyl)-5-methoxyphenoxy)methyl)-2,2′-dimethyl-[1,1′-biphenyl]-3-)oxy)propyl)-1H-1,2,3-triazol-4-)methyl)-D-serine ethyl ester]	0.01 to 0.1	0.1 to 1	–
(4-((3′-(2-(4-(((1-carboxy-2-hydroxyethyl)amino)methyl)-1H-1,2,3-triazol-1-)ethyl oxy)-2,2′-dimethyl-[1,1′-biphenyl]-3-)methoxy)-5-chloro-2-((5-cyanopyridin-3-)methoxy)ben zyl)serine [II-6]	0.1 to 1	–	–
(4-((3′-(3-(4-(((1-carboxy-2-hydroxyethyl)amino)methyl)-1H-1,2,3-triazol-1-)propoxy)-2,2′-d imethyl-[1,1′-biphenyl]-3-yl)methoxy)-5-chloro-2-methoxybenzyl)serine [II-7]	0.0001 to 0.01	0.0001 to 0.1	–
(4-((3′-(3-(4-(((1-carboxy-2-hydroxyethyl)amino)methyl)-1H-1,2,3-triazol-1-)propoxyl)-2,2′-dichloro-[1,1′-biphenyl]-3-)methoxy)-5-chloro-2-((5-cyanopyridin-3-)methoxy)benzyl)serine [II-16]	0.01 to 0.1	–	–
(4-((3′-(3-(4-(((carboxymethyl)amino)methyl)-1H-1,2,3-triazol-1-)propoxy)-2,2′-dimethyl-[1,1′-biphenyl]-3-)methoxy)-5-chloro-2-((5-cyanopyridin-3-)methoxy)benzyl) glycine [II-5]	0.0001 to 0.01	0.0001 to 0.1	–
(4-((3′-(3-(4-(((carboxymethyl)amino)methyl)-1H-1,2,3-triazol-1-)propoxy)-2, 2′-dichloro-[1,1′-biphenyl]-3-)methoxy)-5-chloro-2-((5-cyanopyridin-3-)methoxy)benzyl) glycine [II-17]	0.1 to 1	–	–
N-(2-((4-((3′-(3-(4-(((2-acetylaminoethyl)amino) methyl)-1H-1,2,3-triazole-1-)propoxy)-2,2′-dimethyl-[1,1′-biphenyl]-3-)methoxy)-5-chloro-2-((5-cyanopyridine-3-)methoxy) benzyl)amino)ethyl)acetamide [II-3]	0.01 to 0.1	0.0001 to 0.1	–
